Experimental data: patent US20110110918A1, “ROLE OF (DE)ACETYLATION IN COUNTERACTING PROTEIN AGGREGATION” (Rijksuniversiteit Groningen, priority 2008, published 2011)
“Also recorded” adds a separate entry of the source.

Columns and labels:
Assay type in all cases: cell-based, Human
HDQ119 aggregation = assay: Filter trap assay of HDQ119 aggregation in HEK-293 cells cotransfected with EYFP-HDQ119 and DnaJB6 or DnaJB8; conditions: for ability of DnaJB8 and DnaJB6 to suppress HDQ119 aggregation in presence of HDAC inhibitor: HEK-293 expressing DnaJB6 or DnaJB8 (Tet on), Trichostatin A 100 and 500 nM, Tubacin 3 and 5 μM, Niltubacin 3 and 5 μM
Procedure: Cell culture and transient infections. Flp-In T-Rex HEK293 cells (Human embryonic kidney 293) stably expressing the tetracycline (tet) repressor were obtained from Invitrogen. Cells were cultured in DMEM (Gibco) supplemented with 10% foetal bovine serum (Sigma) and 100 units/ml penicillin and 100 μg/ml streptomycin (Invitrogen). 5 μg/ml Blasticidine (Sigma) and 100 μg/ml of Zeocin (Invitrogen) were added to the cultures. Cultures were maintained at 37° C. and 5% CO2 in a humidified incubator. For transient transfections, cells were grown to 50-60% confluence in 35 mm-diameter dishes coated with 0.001% of poly-L-lysine (Sigma) and on coated coverslips for confocal microscopy analyses. Cells were transfected with a total of 1 μg of DNA using Lipofectamine (Gibco) according to the manufacturer instructions.
Plasmids. The construction of pHDQ119-EYFP driving the expression of a fragment of exon-1 of huntingtin fused to the enhanced yellow fluorescent protein was previously described (Rujano et al., 2006). The construction of the tetracycline inducible HSP overexpression plasmids is described by Hageman et al. (manuscript in preparation). Briefly, first the V5 sequence containing a Kozak initiation codon and lacking a stop codon was inserted in pcDNA5/FRT/TO by oligo cloning. Subsequently, the coding sequence of each gene was amplified and the PCR products where purified, cleaved with the respective enzymes and ligated in frame in the pcDNA5/FRT/TO-V5 vector cleaved with the same set of enzymes. Presence of the correct insert was verified using DNA sequencing. Expression of the proteins at the expected molecular mass was verified by Western Not analysis against the V5-tag.
(§1) HDAC inhibition. […] Cell extracts prepared 36 hours after treatment were processed for filter trap essays and western Notting as described before. Increase in acetylated tubulin and histones as detected by western Notting was used as test for functionality.
Cell extracts and sample preparation. 24 hours after transfection cells were recovered by trypsinization, pelleted and resuspended in 1 ml of PBS. The cell suspension was centrifuged at 6000 rpm for 5 min at RT and the pellet was resuspended in 75 μl of RIPA buffer containing 2% SDS supplemented with protease inhibitors and sonicated. Protein content was determined with the DC protein essay (Bio-RAD). Western Not samples were prepared at a final concentration of 1 μg/μl in SDS-PAGE loading buffer and heated for 5 min at 100° C. Filter trap samples were prepared at a final concentration of 100 ng/μl, 20 ng/μl and 4 ng/μl in FTA buffer (10 mM Tris-Cl pH 8.0, 150 mM NaCl and 50 mM dithiothreitol)+2% SDS and heated for 5 min at 100° C. Samples were used immediately or kept frozen at −20° C.
Filter trap assay. Filter trap assay was performed based on the protocol described by Carra et al. (2005). Briefly, 10, 2 and 0.4 μg of protein extracts were applied onto a 0.2 μm pore Cellulose Acetate membrane prewashed with FTA+0.1% SDS. Mild suction was applied and the membrane was washed 3 times with the same buffer. […] For quantitative analysis, relative intensity of the bands was measured using GelPro Analyzer 4.5 gel analyzer software.

HDAC-6 = assay: Western blot of acetylated tubulin as test for HDAC inhibitor functionality; conditions: control cells or cells expressing DnaJB8
Procedure: as §1
Western blot analysis. […] Proteins were transferred onto nitrocellulose membranes and probed with monoclonal anti-GFP antibody GL-8 (Clontech) at a 1:5000 dilution and monoclonal anti-V5 antibody (Invitrogen) at a 1:5000 dilution. GAPDH was used a loading control and was detected with a monoclonal antibody (RDI Research Diagnostics) at 1:1000 dilution. Blots were incubated with HRP-conjugated anti-mouse secondary antibody (Amersham) at 1:5000 dilution, and visualization was made using enhanced chemiluminescence and Hyperfilm (ECL, Amersham).

DNAJB8 = assay: Mass spectrometry of immunoprecipitated DNAJB8 from TSA-treated cells; conditions: TSA-treated cells versus control sample, in-gel digestion
Procedure: Immunoprecipitation. Cells from a 35 mm dish were washed twice with PBS and lysed in 500 μl RIPA (25 mM Tris-HCl pH 7.6, 150 mM NaCl, 1% NP-40, 1% sodium deoxycholate, 0.1% SDS). Lysis was completed by passing the extracts five times through a 21-gauge needle. Subsequently, cell extracts were centrifuged twice at 10,000 G for 10 minutes at 4° C. and the supernatant transferred. Lysates were cleared with agarose A/G beads for 1 hour at 4° C. in a rotator. In the mean time, 0.5 μg V5 anti-body was incubated with […] agarose A/G plus agarose beads (Santa Cruz Biotechnology) and 50 μl RIPA for 1 hour at 4° C. Thereafter, samples were centrifuged at 1000 g for 30 seconds and the supernatant was transferred to a new tube together with 50 μl of the pre-incubated antibody and incubated for 1 more hour in a rotator. Thereafter, the beads were washed twice with RIPA and twice with PBS. After the final wash, 30 μl of RIPA was added together with 30 μl Laemmli sample buffer and boiled for 5 minutes. 10 μl of the extract was loaded and subjected for Western blot analysis.
Mass Spectometry. […]
The digested material was analyzed by nanoLC-MS/MS on an Ultimate 3000 system (Dionex, Amsterdam, The Netherlands) connected on-line with a LTQ-Orbitrap-XL mass spectrometer (ThermoFisher Scientific, San Jose, Calif.). […]

Row | Molecule | ability of DnaJB8 and DnaJB6 to suppress HDQ119 aggregation in presence of HDAC inhibitor (HDQ119 aggregation) | tubulin acetylation (cellular content of acetylated tubulin) (HDAC-6) | DnaJB8 and DnaJB6 activity on HDQ119 aggregation (HDQ119 aggregation; 0.5 μM TSA) | HDQ119 aggregation in cells transfected with the empty vector (HDQ119 aggregation; empty plasmid (FRT TO), HEK-293, different concentrations of TSA) | acetylated DNAJB8 peptides (K61, K216, K223) detected by mass spectrometry (DNAJB8) | suppression of poly-Q huntingtin (HDQ119) aggregation by overexpressed DnaJB8 variant (HDQ119 aggregation; Tet on, 24 h after cotransfection, filter trap 10, 2 and 0.4 ug protein/slot)
1 | O=C(CCCCCCC(=O)Nc1ccc([C@H]2O[C@@H](CSc3nc(-c4ccccc4)c(-c4ccccc4)o3)C[C@@H](c3ccc(CO)cc3)O2)cc1)NO [Tubacin] | did not result in inhibition of DnaJB8 and DnaJB6 activity | increases the cellular content of acytelated Tubulin; also recorded: equally effective in increasing tubulin acetylation |  |  |  | 
2 | CC(/C=C/C(=O)NO)=C\[C@@H](C)C(=O)c1ccc(N(C)C)cc1 [TSA, Trichostatin A] | but not after HDAC inhibition with TSA; also recorded: stronly reduced; also recorded: concentration dependent loss of the ability of DnaJB8 and DnaJB6 to reduce HQ119 aggregation | increases the cellular content of acytelated Tubulin; also recorded: equally effective in increasing tubulin acetylation | completely annihilated DnaJB8 and DnaJB6 activity | slightly enhanced HDQ119 aggregation | 3 peaks in the TSA-treated samples that were absent in the control sample | 
3 | wild type DnaJB8: member of the Hsp40 family, chaperone counteracting protein aggregation; V5-tagged, tet-inducible overexpression (protein, UniProt Q8NHS0 1-232, looked up, V5 tag, member of the Hsp40 family, chaperone counteracting protein aggregation; V5-tagged, tet-inducible overexpression) DnaJ homolog subfamily B …: MANYYEVLGVQASASPEDIKKAYRKLALRWHPDKNPDNKEEAEKKFKLVSEAYEVLSDSKKRSLYDRAGCDSWRAGGGASTPYHSPFDTGYTFRNPEDIFREFFGGLDPFSFEFWDSPFNSDRGGRGHGLRGAFSAGFGEFPAFMEAFSSFNMLGCSGGSHTTFSSTSFGGSSSGSSGFKSVMSSTEMINGHKVTTKRIVENGQERVEVEEDGQLKSVTVNGKEQLKWMDSK |  |  |  |  |  | substantially suppressed aggregation of poly-Q huntingtin
